{"source": "patent US8618153B2", "about": "“Hepatitis C virus inhibitors” (Bristol-Myers Squibb Company, priority 2009, dated 2013)"}
{"tested_on": "HCV 1b genotype", "experiment": "HCV Replicon assay (HCV-neo replicon cells), 1b genotype", "type": "cell-based", "details": "Hepatitis C virus; HCV 1b genotype replicon; numeric value; read-out: 1b EC50 (in μM or range)", "procedure": "(§1) An HCV Replicon assay was utilized in the present disclosure, and was prepared, conducted and validated as described in commonly owned PCT/US2006/022197 and in O'Boyle et al., Antimicrob. Agents Chemother., 49(4):1346-1353 (April 2005). Assay methods incorporating luciferase reporters have also been used as described (Apath.com).\n(§2) HCV-neo replicon cells and replicon cells containing mutations in the NS5A region were used to test the currently described family of compounds. The compounds were determined to have more than 10-fold less inhibitory activity on cells containing mutations than wild-type cells. Thus, the compounds of the present disclosure can be effective in inhibiting the function of the HCV NS5A protein and are understood to be as effective in combinations as previously described in application PCT/US2006/022197 and commonly owned WO 04/014852. Further, the compounds of the present disclosure can be effective against the HCV 1b genotype. It should also be understood that the compounds of the present disclosure can inhibit multiple genotypes of HCV. […] In one embodiment compounds of the present disclosure are inhibitory versus 1a, 1b, 2a, 2b, 3a, 4a, and 5a genotypes. […] The compounds of the present disclosure may inhibit HCV by mechanisms in addition to or other than NS5A inhibition. In one embodiment the compounds of the present disclosure inhibit HCV replicon and in another embodiment the compounds of the present disclosure inhibit NS5A.", "units": {"EC50": "nM"}}
{"smiles": "COC(=O)N[C@H](C(=O)N1CCC[C@H]1c1ncc(-c2ccc(-c3ccc(-c4cnc([C@@H]5CCCN5C(=O)[C@@H](NC(=O)OC)C(C)C)[nH]4)s3)s2)[nH]1)C(C)C", "note": "[Example 6, Methyl ((1S)-1-(((2S)-2-(4-(5′-(2-((2S)-1-((2S)-2-((methoxycarbonyl)amino)-3-methylbutanoyl)-2-pyrrolidinyl)-1H-imidazol-4-yl)-2,2′-bithiophen-5-yl)-1H-imidazol-2-yl)-1-pyrrolidinyl)carbonyl)-2-methylpropyl)carbamate]", "EC50": 0.003}
{"smiles": "CCN(CC)[C@@H](C(=O)N1CCC[C@H]1c1nc(/C=C/c2ccc(/C=C/c3cnc([C@@H]4CCCN4C(=O)[C@@H](c4ccccc4)N(CC)CC)[nH]3)cc2)c[nH]1)c1ccccc1", "note": "[Example 35, (1R)-2-((2S)-2-(4-((E)-2-(4-((E)-2-(2-((2S)-1-((2R)-2-(diethylamino)-2-phenylacetyl)-2-pyrrolidinyl)-1H-imidazol-5-yl)vinyl)phenyl)vinyl)-1H-imidazol-2-yl)-1-pyrrolidinyl)-N,N-diethyl-2-oxo-1-phenylethanamine]", "EC50": 0.14}
{"tested_on": "HCV 1b genotype", "experiment": "HCV Replicon assay (HCV-neo replicon cells), 1b genotype", "type": "cell-based", "details": "Hepatitis C virus; HCV 1b genotype replicon; value given as range class; read-out: 1b EC50 (in μM or range)", "procedure": "as §1, §2", "units": {"EC50": "nM"}}
{"smiles": "CN(C)[C@@H](C(=O)N1CCC[C@H]1c1ncc(-c2ccc(-c3cnc(-c4c[nH]c([C@@H]5CCCN5C(=O)OCc5ccccc5)n4)o3)cc2)[nH]1)c1ccccc1", "note": "[Example 28, Benzyl (2S)-2-(4-(5-(4-(2-((2S)-1-((2R)-2-((N,N-dimethyl)amino)-2-phenylacetyl)-2-pyrrolidinyl)-1H-imidazol-4-yl)phenyl)-1,3-oxazol-2-yl)-1H-imidazol-2-yl)-1-pyrrolidinecarboxylate]", "EC50": "1 to 10"}
{"smiles": "COC(=O)N[C@@H](C(=O)N1CCC[C@H]1c1nc(/C=C/c2ccc(/C=C/c3cnc([C@@H]4CCCN4C(=O)[C@H](NC(=O)OC)c4ccccc4)[nH]3)cc2)c[nH]1)c1ccccc1", "note": "[Example 36, dimethyl (1,4-phenylenebis((E)-2,1-ethenediyl-1H-imidazole-4,2-diyl(2S)-2,1-pyrrolidinediyl((1R)-2-oxo-1-phenyl-2,1-ethanediyl)))biscarbamate]", "EC50": "< 1"}
{"smiles": "COC(=O)N[C@@H](C(=O)N1CCC[C@H]1c1nc(CCc2ccc(CCc3cnc([C@@H]4CCCN4C(=O)[C@H](NC(=O)OC)c4ccccc4)[nH]3)cc2)c[nH]1)c1ccccc1", "note": "[Example 41, dimethyl (1,4-phenylenebis(2,1-ethanediyl-1H-imidazole-4,2-diyl(2S)-2,1-pyrrolidinediyl((1R)-2-oxo-1-phenyl-2,1-ethanediyl)))biscarbamate]", "EC50": "< 1"}
{"smiles": "COC(=O)N[C@@H](C(=O)N1CCC[C@H]1c1ncc(-c2ccc(-c3ccc(-c4cnc([C@@H]5CCCN5C(=O)[C@H](NC(=O)OC)C(C)C)[nH]4)s3)s2)[nH]1)C(C)C", "note": "[Example 3, Methyl ((1R)-1-(((2S)-2-(4-(5′-(2-((2S)-1-((2R)-2-((methoxycarbonyl)amino)-3-methylbutanoyl)-2-pyrrolidinyl)-1H-imidazol-4-yl)-2,2′-bithiophen-5-yl)-1H-imidazol-2-yl)-1-pyrrolidinyl)carbonyl)-2-methylpropyl)carbamate]", "EC50": "10 to 10000"}
{"smiles": "COC(=O)N[C@H](C(=O)N1CCC[C@H]1c1ncc(-c2ncc(-c3cnc(-c4cnc([C@@H]5CCCN5C(=O)[C@@H](NC(=O)OC)[C@@H](C)OC)[nH]4)s3)s2)[nH]1)[C@@H](C)OC", "note": "[Example 12, Methyl ((1S,2R)-2-methoxy-1-(((2S)-2-(4-(2′-(2-((2S)-1-(N-(methoxycarbonyl)-O-methyl-L-threonyl)-2-pyrrolidinyl)-1H-imidazol-4-yl)-5,5′-bi-1,3-thiazol-2-yl)-1H-imidazol-2-yl)-1-pyrrolidinyl)carbonyl)propyl)carbamate]", "EC50": "10 to 10000"}
{"smiles": "CN(C)[C@@H](C(=O)N1CCC[C@H]1c1nc(-c2ncc(-c3cccc(-c4cnc([C@@H]5CCCN5C(=O)[C@@H](c5ccccc5)N(C)C)[nH]4)c3)o2)c[nH]1)c1ccccc1", "note": "[Example 22, (1R)-2-((2S)-2-(4-(3-(2-(2-((2S)-1-((2R)-2-(Dimethylamino)-2-phenylacetyl)-2-pyrrolidinyl)-1H-imidazol-4-yl)-1,3-oxazol-5-yl)phenyl)-1H-imidazol-2-yl)-1-pyrrolidinyl)-N,N-dimethyl-2-oxo-1-phenylethanamine]", "EC50": "1 to 10"}
{"smiles": "COC(=O)N[C@H](C(=O)N1CCC[C@H]1c1ncc(-c2ncc(-c3cnc(-c4cnc([C@@H]5CCCN5C(=O)[C@@H](NC(=O)OC)C(C)C)[nH]4)s3)s2)[nH]1)C(C)C", "note": "[Example 10, Methyl ((1S)-1-(((2S)-2-(4-(2′-(2-((2S)-1-((2S)-2-((methoxycarbonyl)amino)-3-methylbutanoyl)-2-pyrrolidinyl)-1H-imidazol-4-yl)-5,5′-bi-1,3-thiazol-2-yl)-1H-imidazol-2-yl)-1-pyrrolidinyl)carbonyl)-2-methylpropyl)carbamate]", "EC50": "1 to 10"}
{"smiles": "CN(C)[C@@H](C(=O)N1CCC[C@H]1c1ncc(-c2ncc(-c3cnc(-c4cnc([C@@H]5CCCN5C(=O)[C@@H](c5ccccc5)N(C)C)[nH]4)s3)s2)[nH]1)c1ccccc1", "note": "[Example 8, (1R,1′R)-2,2′-(5,5′-Bi-1,3-thiazole-2,2′-diylbis(1H-imidazole-4,2-diyl(2S)-2,1-pyrrolidinediyl))bis(N,N-dimethyl-2-oxo-1-phenylethanamine)]", "EC50": "< 1"}
{"smiles": "COC(=O)N[C@@H](C(=O)N1CCC[C@H]1c1ncc(-c2cnc(-c3ncc(-c4cnc([C@@H]5CCCN5C(=O)[C@H](NC(=O)OC)C(C)C)[nH]4)s3)s2)[nH]1)C(C)C", "note": "[Example 18]", "EC50": "10 to 10000"}
{"smiles": "CN(C)[C@@H](C(=O)N1CCC[C@H]1c1nc(-c2ncc(-c3ccc(-c4cnc([C@@H]5CCCN5C(=O)[C@@H](c5ccccc5)N(C)C)[nH]4)cc3)o2)c[nH]1)c1ccccc1", "note": "[Example 26, (1R)-2-((2S)-2-(4-(4-(2-(2-((2S)-1-((2R)-2-(Dimethylamino)-2-phenylacetyl)-2-pyrrolidinyl)-1H-imidazol-4-yl)-1,3-oxazol-5-yl)phenyl)-1H-imidazol-2-yl)-1-pyrrolidinyl)-N,N-dimethyl-2-oxo-1-phenylethanamine]", "EC50": "1 to 10"}
{"smiles": "COC(=O)N[C@@H](C(=O)N1CCC[C@H]1c1ncc(-c2cnc(-c3ncc(-c4cnc([C@@H]5CCCN5C(=O)[C@H](NC(=O)OC)c5ccccc5)[nH]4)s3)s2)[nH]1)c1ccccc1", "note": "[Example 16, Dimethyl (2,2′-bi-1,3-thiazole-5,5′-diylbis(1H-imidazole-4,2-diyl(2S)-2,1-pyrrolidinediyl((1R)-2-oxo-1-phenyl-2,1-ethanediyl)))biscarbamate]", "EC50": "< 1"}
{"smiles": "COC(=O)N[C@@H](C)C(=O)N1CCC[C@H]1c1ncc(-c2ccc(-c3ccc(-c4cnc([C@@H]5CCCN5C(=O)[C@H](C)NC(=O)OC)[nH]4)s3)s2)[nH]1", "note": "[Example 1, Methyl ((1S)-2-((2S)-2-(4-(5′-(2-((2S)-1-(N-(methoxycarbonyl)-L-alanyl)-2-pyrrolidinyl)-1H-imidazol-4-yl)-2,2′-bithiophen-5-yl)-1H-imidazol-2-yl)-1-pyrrolidinyl)-1-methyl-2-oxoethyl)carbamate]", "EC50": "< 1"}
{"smiles": "COC(=O)N[C@H](C(=O)N1CCC[C@H]1c1ncc(-c2cnc(-c3ncc(-c4cnc([C@@H]5CCCN5C(=O)[C@@H](NC(=O)OC)C(C)C)[nH]4)s3)s2)[nH]1)C(C)C", "note": "[Example 14, Methyl ((1S)-1-(((2S)-2-(4-(5′-(2-((2S)-1-((2S)-2-((methoxycarbonyl)amino)-3-methylbutanoyl)-2-pyrrolidinyl)-1H-imidazol-4-yl)-2,2′-bi-1,3-thiazol-5-yl)-1H-imidazol-2-yl)-1-pyrrolidinyl)carbonyl)-2-methylpropyl)carbamate]", "EC50": "< 1"}
{"smiles": "COC(=O)N[C@H](C(=O)N1CCC[C@H]1c1nc(/C=C/c2ccc(/C=C/c3cnc([C@@H]4CCCN4C(=O)[C@@H](NC(=O)OC)C(C)C)[nH]3)cc2)c[nH]1)C(C)C", "note": "[Example 38, methyl ((1S)-1-(((2S)-2-(4-((E)-2-(4-((E)-2-(2-((2S)-1-((2S)-2-((methoxycarbonyl)amino)-3-methylbutanoyl)-2-pyrrolidinyl)-1H-imidazol-4-yl)vinyl)phenyl)vinyl)-1H-imidazol-2-yl)-1-pyrrolidinyl)carbonyl)-2-methylpropyl)carbamate]", "EC50": "< 1"}
{"smiles": "COC(=O)N[C@@H](C)C(=O)N1CCC[C@H]1c1ncc(-c2cnc(-c3ncc(-c4cnc([C@@H]5CCCN5C(=O)[C@H](C)NC(=O)OC)[nH]4)s3)s2)[nH]1", "note": "[Example 20, Methyl ((1S)-2-((2S)-2-(4-(5′-(2-((2S)-1-(N-(methoxycarbonyl)-L-alanyl)-2-pyrrolidinyl)-1H-imidazol-4-yl)-2,2′-bi-1,3-thiazol-5-yl)-1H-imidazol-2-yl)-1-pyrrolidinyl)-1-methyl-2-oxoethyl)carbamate]", "EC50": "1 to 10"}
{"smiles": "COC(=O)N[C@H](C(=O)N1CCC[C@H]1c1nc(/C=C/c2ccc(/C=C/c3cnc([C@@H]4CCCN4C(=O)[C@@H](NC(=O)OC)[C@@H](C)OC)[nH]3)cc2)c[nH]1)[C@@H](C)OC", "note": "[Example 39, methyl ((1S,2R)-2-methoxy-1-(((2S)-2-(4-((E)-2-(4-((E)-2-(2-((2S)-1-(N-(methoxycarbonyl)-O-methyl-L-threonyl)-2-pyrrolidinyl)-1H-imidazol-4-yl)vinyl)phenyl)vinyl)-1H-imidazol-2-yl)-1-pyrrolidinyl)carbonyl)propyl)carbamate]", "EC50": "< 1"}
